# Like-named read-outs stand apart in the source and are kept apart here. Where a SMILES comes first, the peptide text is derived from it.
# Columns and labels:
# Aphis fabae = details: unformulated; for reduction in Aphis fabae numbers as a percentage of untreated control crop: vining peas
# From the text: (§1) The data has been processed in the ARM Field Trials software under license.
# [1] = system: Amrasca biguttula (leaf hopper); details: unformulated; 3 and 7 days after application (FIG. 16)
# From the text: as §1
# Bumblebee = test: Bee oral toxicity test adapted from OECD Test No. 247 (Bumblebee, Acute Oral Toxicity Test); assay type: in vivo; details: after 96 hours of application, compared to Imidacloprid (FIG. 10)
# Procedure: Bee oral testing protocol was carried out adapted from OECD Test No. 247: Bumblebee, Acute Oral Toxicity Test. The toxicity of SB—P-46 was compared with a negative control of sucrose or vehicle, and with a current commercial insecticide Imidacloprid.
# Aphis gossypii = details: Greece; cotton; unformulated; counted 3 days following application (FIG. 14)
# From the text: as §1
# AgriScience conducted a field trial in Greece, investigating the efficacy of insecticidal peptides on aphids on cotton crop.
# Myzus persicae = details: unformulated peptide; leaf dip; mortality assessed at 72, 96 and 120 hours; compared to vehicle and Spirotetramat (FIGS. 6 and 7)
# Procedure: Dip a 2.5 cm leaf disc into 3 ml of treatment solution allowing the treatment to coat the leaf. Leave the disc to dry for 1 hour and place onto the set agar. Place insects (aphids) onto each of the leaf discs. Each unit is sealed with a close-fitting, ventilated lid. Place the agar dishes in a small plastic tray lined with moist tissue paper and ensure the water trays in the bottom of the incubator are filled with clean water and place within the incubator. An assessment of mortality is made at 72, 96 and 120 hours. Leaf dip assays were performed with unformulated SB—P-46, and compared to a negative control vehicle and a current commercial insecticide Spirotetramat.
structure (smiles),measurement,setting,value
"CC(C)C[C@H](NC(=O)[C@H](CCCNC(=N)N)NC(=O)[C@@H]1CCCN1C(=O)[C@H](CO)NC(=O)[C@H](Cc1ccccc1)NC(=O)[C@@H]1CCCN1C(=O)[C@@H]1CCCN1C(=O)[C@H](CO)NC(=O)[C@H](Cc1ccc(O)cc1)NC(=O)[C@@H]1CCCN1C(=O)[C@@H]1CCCN1C(=O)[C@@H](N)CO)C(N)=O [SB—P-46, [Hy]-SPPYSPPFSPRL-[NH2]] (H-SPPYSPPFSPRL-NH2)",reduction in Aphis fabae numbers as a percentage of untreated control crop,"Aphis fabae; Field trial 1, Chatteris location, counted 14 days following application (FIG. 11)",performed comparably to the conventional insecticides Stealth and Teppeki
same,reduction in Aphis fabae numbers as a percentage of untreated control crop,"Aphis fabae; Wigtoft location, counted 4 days following application (FIG. 12)",similarly efficacious activity
same,activity against naturally infested Aphis fabae,"Aphis fabae; further field trials, 4 and 8 days after application (FIG. 15)",acted comparably to Hallmark Zeon insecticide
same,reduction in Aphis fabae numbers as a percentage of untreated control crop,"Aphis fabae; third PGRO trial (slot trial), Holbeach location, counted 7 days following application, low aphid infestation (FIG. 13)",performed as efficaciously as the conventional pesticides tested
same,activity against naturally infested Amrasca biguttula (leaf hopper),[1],acted comparably to Flipper insecticide
same,toxicity to bees (% survival),Bumblebee,far lower toxicity
same,reduction in Aphis gossypii numbers as a percentage of untreated control crop,Aphis gossypii,close efficacy to the conventional pesticide equivalent tested
same,activity against Myzus persicae (mortality),Myzus persicae,good activity

# From patent publication US12281143B1, “Insect neuropeptides 1” (Solasta Bio Limited, priority 2023, dated 2025)
